Measured values reported in patent publication US4254123A, “Novel imidazoquinoxalines” (Roussel Uclaf, priority 1978, dated 1981).
Like-named read-outs stand apart in the source and are kept apart here.

Test system: Passive cutaneous anaphylaxis
Test: Passive cutaneous anaphylaxis (PCA) in rats
Type: in vivo
Conditions: dosed immediately prior to i.v. antigen/Evans blue challenge, blueing scored after 30 minutes; for ED50: Rattus norvegicus, 0.5 h
Experimental: Cutaneous anaphylaxis can be induced in rats by intradermal (ID) sensitization with antiserum followed three days later by systemic challenge with antigen. Evans blue dye injected with the antigen is used as a marker to assess the severity of the local response. Anti-allergic drugs inhibit this reaction. […] Brown: Pergamon Press:-male rats weighing 180-220 grams are used in groups of seven.
1. Wash 120 grams of Al(OH)3 gel in 140 ml of saline (use of a macerater facilitates mixing).
2. Centrifuge at 3,000 r.p.m. for about 10 minutes.
3. Resuspend the precipitate with 300 ml of albumen egg powder (1.3 mg/ml) in saline and allow to stand for 30 minutes.
4. Centrifuge at 3,000 r.p.m. for 10 minutes.
5. Weigh the wet precipitate and to each gram weight add 1 ml of saline. Store in refrigerator (Quantity sufficient for 60 rats for a 3 day sensitization program).
1 ml of the alum precipitated ovalbumen was injected subcutaneously into rats weighing 180-200 grams on days 0,2,4. The rats were bled on day 14 either by cardiac puncture of via the dorsal abdominal aorta. Equal quantities of serum from each animal were pooled and thoroughly mixed and 2 ml aliquots were stored at -20° C. in plastic tubes.
(A) SENSITIZATION: The rats were anaesthetized with Nembutal (40-60 mg/kg i.p.) and were then sensitized by four ID injections (0.1 ml each) on their shaved backs. The animals were then left for a period of three days to develop sensitization.
The injections were speeded up by using an automatic 1 ml self-filling glass syringe. The "challenged" rats were killed after 30 minutes, (usually pithed) and their skin on the dorsal surface was removed. The degree and area of blueing, proportional to the anaphylactic reaction was assessed on a four point scoring system.
1. Total scores for sites 1,2,3 and 4=X
2. Mean value of X for each group=X
3. X t=X for test group; X c=X for control group [formula]

[1] = intravenous, read-out: ED 50 (dose of drug giving 50% inhibition), intravenously

| Molecule | ED50 [1] [mg/kg] | ED50 (oral, read-out: ED 50 (dose of drug giving 50% inhibition), orally) [mg/kg] | ED 50 (dose of drug giving 50% inhibition), intravenously (intravenous) [mg/kg] | ED 50 (dose of drug giving 50% inhibition), orally (oral) [mg/kg] |
| --- | --- | --- | --- | --- |
| O=C(O)c1cn2c(cnc3cc(Cl)c(Cl)cc32)n1 [Example 3, 7,8-dichloro-imidazo-[1,2-a]-quinoxaline-2-carboxylic acid] | 0.2 |  |  |  |
| CCOc1nc2ccccc2n2cc(C(=O)O)nc12 [Example 5, 4-ethoxy-imidazo-[1,2-a]-quinoxaline-2-carboxylic acid] | 0.83 |  |  |  |
| O=C(O)c1cn2c(cnc3ccccc32)n1 [Example 1, Imidazo-[1,2-a]-quinoxaline-2-carboxylic acid] | 0.073 | 0.73 |  |  |
| NC(=O)c1nc2ccccc2n2cc(C(=O)O)nc12 [Example 6, 4-carbamoyl-imidazo-[1,2-a]-quinoxaline-2-carboxylic acid] | 3.13 |  |  |  |
| 7- and 8-chloro-imidazo-[1,2-a]-quinoxaline-2-carboxylic acid [Example 4] |  |  | 0.12 | 0.71 |
